Measurements reported in patent US6521654B2, “Substituted imidazolidine derivatives, their preparation, their use and pharmaceutical preparations including them” (Aventis Pharma Deutschland GmbH, priority 1997, dated 2003).
pIC50: −log10 of the molar value.

Molecular target: T1, interaction between VCAM-1 and VLA-4 (Homo sapiens, UniProt P05556+P13612)
T1 construct: supplied in their natural form as surface molecules on human U937 cells; host or cells: U937 cells carry endogenous VLA-4; The partner hVCAM-1(1-3)-IgG was made in house in transfected COS cells (ATCC CRL1651) and used as culture supernatant
Assay: U937/VCAM-1 cell adhesion test (adhesion of U937 cells to hVCAM-1(1-3)-IgG)
Assay type: cell-based
Conditions: concentration leading to 50% inhibition of adhesion of human U937 cells (ATCC CRL 1593) to hVCAM-1(1-3)-IgG
Source text: The test method used for the activity of the compounds of the formula I on the interaction between VCAM-1 and VLA-4 is the assay described below which is specific for this interaction. The cellular binding components, i.e., the VLA-4 integrins, are supplied in their natural form as surface molecules on human U937 cells (ATCC CRL 1593). which belong to the leucocytes group. The specific binding components used are genetically engineered recombinant soluble fusion proteins, consisting of the extracytoplasmatic domain of human VCAM-1 and the constant region of a human immunoglobulin of the subclass IgG1.
Assay for the Measurement of the Adhesion of U937 Cells (ATCC CRL 1593) to hVCAM-1(1-3)-IgG
1. Preparation of Human VCAM-1 (1-3)-IgG and Human CD4-IgG
A genetic construct for the expression of the extracellular domain of human VCAM-1, associated with the genetic sequence of the heavy chain of human immunoglobulin IgG1 (hinge, CH2 and CH3 regions), from Dr. Brian Seed, Massachusetts General Hospital. Boston, USA was employed (cf. Damle and Aruffo, Proc. Natl. Acad. Sci. USA 1991, 88, 6403-6407). The soluble fusion protein hVCAM-1(1-3)-IgG contained the three amino-terminal extracellular immunoglobulin-like domains of human VCAM-1 (Damle and Aruffo, Proc. Natl. Acad. Sci. USA 1991, 88, 6403-6407). CD4-IgG (Zettimeissl et al., DNA and Cell Biology 1990, 9, 347) served as a fusion protein for negative controls. The recombinant proteins were expressed as soluble proteins after DEAE/dextran-mediated DNA transfection in COS cells (ATCC CRL1651) according to standard procedures (Ausubel et al., Current Protocols in Molecular Biology, John Wiley & Sons, Inc., 1994).
2. Assay for the Measurement of the Adhesion of U937 Cells to hVCAM-1 (1-3)-IgG
2.1 96-well microtiter test plates (Nunc Maxisorb) were incubated at room temperature for 1 hour with 100 μl/well of a goat-anti-human IgG antibody solution (10 μg/ml in 50 mM tris, pH 9.5). After removal of the antibody solution, washing was carried out once with PBS.
2.2 150 μl/well of a blocking buffer (1% BSA in PBS) were incubated on the plates at room temperature for 0.5 hour. After removal of the blocking buffer, washing was carried out once with PBS.
2.3 100 μl per well of a cell culture supernatant of transfected COS cells were incubated on the plates at room temperature for 1.5 hours. The COS cells were transfected with a plasmid which codes for the three N-terminal immunoglobulin-like domains of VCAM-1, coupled to the Fc part of human IgG1 (hVCAM-1 (1-3)-IgG). The content of hVCAM-1 (1-3)-IgG was about 0.5-1 μg/ml. After removal of the culture supernatant, washing was carried out once with PBS.
2.4 The plates were incubated at room temperature for 20 minutes with 100 μl/well of Fc receptor blocking buffer (1 mg/ml of γ-globulin, 100 mM NaCl, 100 μM MgCl2, 100 μM MnCl2, 100 μM CaCl2, 1 mg/ml of BSA in 50 mM HEPES, pH 7.5). After removal of the Fc receptor blocking buffer, washing was carried out once with PBS.
2.5 20 μl of binding buffer (100 mM NaCl, 100 μM MgCl2, 100 μM MnCl2, 100 μM CaCl2, 1 mg/ml of BSA in 50 mM HEPES, pH 7.5) were initially introduced, and the substances to be tested were added in 10 μl of binding buffer and incubated for 20 minutes. The controls used were antibodies against VCAM-1 (BBT, No. BBA6) and against VLA-4 (immunotech, No. 0764).
2.6 U937 cells were incubated in Fc receptor blocking buffer for 20 minutes and then added by pipette in a concentration of 1×10^6/ml and in an amount of 100 μl per well ([…]).
2.7 The plates were slowly immersed at an angle of 45° in stop buffer (100 mM NaCl, 100 μM MgCl2, 100 μM MnCl2, 100 μM CaCl2 in 25 mM tris, pH 7.5) and shaken off. The process was repeated.
2.8 50 μl/well of a dye solution (16.7 μg/ml of Hoechst Dye 33258, 4% formaldehyde, 0.5% triton X-100 in PBS) were then incubated on the plates for 15 minutes. […]

T1 sequence (P13612 34-1032): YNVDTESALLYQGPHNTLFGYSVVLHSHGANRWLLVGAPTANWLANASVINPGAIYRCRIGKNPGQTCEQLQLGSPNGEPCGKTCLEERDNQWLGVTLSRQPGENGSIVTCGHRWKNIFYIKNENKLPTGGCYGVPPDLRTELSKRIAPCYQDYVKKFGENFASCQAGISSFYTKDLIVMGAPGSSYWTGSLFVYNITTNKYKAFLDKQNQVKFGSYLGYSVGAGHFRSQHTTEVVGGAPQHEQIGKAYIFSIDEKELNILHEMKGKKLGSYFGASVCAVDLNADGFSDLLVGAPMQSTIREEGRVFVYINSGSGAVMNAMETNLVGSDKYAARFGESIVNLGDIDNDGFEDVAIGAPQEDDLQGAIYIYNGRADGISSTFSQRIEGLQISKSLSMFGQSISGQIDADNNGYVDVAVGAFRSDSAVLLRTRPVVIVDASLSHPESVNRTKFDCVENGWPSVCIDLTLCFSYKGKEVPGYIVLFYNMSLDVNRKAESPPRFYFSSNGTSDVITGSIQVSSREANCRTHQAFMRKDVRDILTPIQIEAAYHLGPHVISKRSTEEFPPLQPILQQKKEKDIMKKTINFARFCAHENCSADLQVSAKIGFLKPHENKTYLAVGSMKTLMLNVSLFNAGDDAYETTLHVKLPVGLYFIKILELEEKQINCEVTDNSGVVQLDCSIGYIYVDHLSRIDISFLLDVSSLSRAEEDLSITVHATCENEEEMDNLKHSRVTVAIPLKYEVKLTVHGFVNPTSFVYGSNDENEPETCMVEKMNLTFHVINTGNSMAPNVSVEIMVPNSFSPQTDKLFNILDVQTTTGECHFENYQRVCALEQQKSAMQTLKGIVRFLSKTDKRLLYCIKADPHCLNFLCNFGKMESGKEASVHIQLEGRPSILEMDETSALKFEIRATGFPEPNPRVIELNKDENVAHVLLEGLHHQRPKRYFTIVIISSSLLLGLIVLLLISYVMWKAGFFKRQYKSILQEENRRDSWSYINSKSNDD
T1 sequence (P05556 21-798): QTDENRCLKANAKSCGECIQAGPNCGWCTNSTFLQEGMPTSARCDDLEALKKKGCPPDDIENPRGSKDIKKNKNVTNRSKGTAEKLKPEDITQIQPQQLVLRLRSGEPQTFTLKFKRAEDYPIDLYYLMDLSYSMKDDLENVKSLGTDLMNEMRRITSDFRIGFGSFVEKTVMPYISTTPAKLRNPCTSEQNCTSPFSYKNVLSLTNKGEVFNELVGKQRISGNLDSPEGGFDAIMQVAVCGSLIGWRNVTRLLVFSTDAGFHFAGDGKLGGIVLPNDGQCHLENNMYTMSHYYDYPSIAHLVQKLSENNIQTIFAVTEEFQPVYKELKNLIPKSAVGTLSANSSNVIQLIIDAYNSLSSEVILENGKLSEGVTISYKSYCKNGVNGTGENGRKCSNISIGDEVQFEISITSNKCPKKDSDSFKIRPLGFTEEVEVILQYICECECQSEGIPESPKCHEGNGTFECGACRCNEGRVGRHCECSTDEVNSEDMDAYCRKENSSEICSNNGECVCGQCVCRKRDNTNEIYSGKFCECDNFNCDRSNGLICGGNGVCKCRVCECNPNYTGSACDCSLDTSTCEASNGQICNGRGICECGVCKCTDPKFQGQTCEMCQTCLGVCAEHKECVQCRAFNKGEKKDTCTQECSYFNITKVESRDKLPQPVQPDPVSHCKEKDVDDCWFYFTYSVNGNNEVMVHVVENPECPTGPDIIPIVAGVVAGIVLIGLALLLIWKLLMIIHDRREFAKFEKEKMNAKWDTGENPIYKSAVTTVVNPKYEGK

| pIC50 | Structure (SMILES) |
| --- | --- |
| 5.54 | Cc1ccccc1NC(=O)Nc1ccc(CN2CC(=O)N(CC(=O)N[C@H](C)CC(=O)O)C2=O)cc1 [Example 26, (R)-3-(2-(3-(4-(3-(2-Methylphenyl)ureido)benzyl)-2,5-dioxoimidazolidin-1-yl)-acetylamino)-3-methylpropionic Acid] |
| 6.05 | Cc1ccccc1NC(=O)Nc1ccc(CN2CC(=O)N(CC(=O)N[C@@H](CC(=O)O)c3ccccc3)C2=O)cc1 [Example 29, (S)3-(2-(3-(4-(3-(2-Methylphenyl)ureido)benzyl)-2,5-dioxoimidazolidin-1-yl)-acetylamino)-3-phenylpropionic Acid] |
| 6.24 | C[C@H](CC(=O)O)NC(=O)CN1C(=O)CN(Cc2ccc(NC(=O)Nc3ccccc3Cl)cc2)C1=O [Example 30, (R)-3-(2-(3-(4-(3-(2-Chlorophenyl)ureido)benzyl)-2,5-dioxoimidazolidin-1-yl)-acetylamino)-3-methylpropionic Acid] |
| 5.83 | CCc1cccc(C)c1NC(=O)Nc1ccc(CN2C(=O)N(CC(=O)N[C@@H](CC(=O)O)c3ccccc3)C(=O)C2(C)C)cc1 [Example 41] |
| 6.33 | Cc1cccc(C)c1NC(=O)Nc1ccc(CN2C(=O)N(CC(=O)N[C@@H](CC(=O)O)c3ccccc3)C(=O)C2(C)C)cc1 [Example 42] |
| 6.13 | Cc1ccc(NC(=O)Nc2ccc(CN3C(=O)N(CC(=O)N[C@@H](CC(=O)O)c4ccccc4)C(=O)C3(C)C)cc2)c(C)c1 [Example 43] |
| 9.07 | Cc1ccccc1NC(=O)Nc1ccc(CN2C(=O)N([C@@H](CC(C)C)C(=O)N[C@@H](CC(=O)O)C(=O)N[C@H](C(=O)O)c3ccccc3)C(=O)C2(C)C)cc1 [Example 47, ((S)-2-(4,4-Dimethyl-3-(4-(3-(2-methylphenyl)ureido)benzyl)-2,5-dioxoimidazolidin-1-yl)-2-(2-methylpropyl)acetyl)-L-aspartyl-L-phenylglycine] |
| 8.15 | Cc1ccccc1NC(=O)Nc1ccc(CN2C(=O)N(CC(=O)N[C@@H](CC(=O)O)c3ccc4c(c3)OCO4)C(=O)C2(C)C)cc1 [Example 93, (S)-3-(2-(4,4-Dimethyl-3-(4-(3-(2-methylphenyl)ureido)benzyl)-2,5-dioxoimidazolidin-1-yl)acetylamino)-3-(3,4-methylenedioxyphenyl)propionic Acid] |
| 7.66 | Cc1ccccc1NC(=O)Nc1ccc(CN2C(=O)N(CC(=O)NC[C@H](NC(=O)OCc3ccccc3)C(=O)O)C(=O)C2(C)C)cc1 [Example 94] |
| 8.40 | Cc1ccccc1NC(=O)Nc1ccc(CN2C(=O)N([C@@H](CC(C)C)C(=O)N[C@@H](CC(=O)O)c3ccc4ccccc4c3)C(=O)C2(C)C)cc1 [Example 184] |

Second part, the compound before the results:

| Structure (SMILES) | pIC50 |
| --- | --- |
| CC1(C)C(=O)N(CC(=O)N[C@@H](CC(=O)O)C(=O)NC2C3CC4CC(C3)CC2C4)C(=O)N1Cc1ccc(NC(=O)Nc2ccccc2)cc1 (stereo partly drawn) [Example 24, (2-(4,4-Dimethyl-3-(4-(3-phenylureido)benzyl)-2,5-dioxoimidazolidin-1-yl)-acetyl)-L-(2-adamantyl)aspartamide] | 8.22 |
| CC(C)C[C@@H](C(=O)N[C@@H](CC(=O)O)C(=O)NC1C2CC3CC(C2)CC1C3)N1C(=O)N(Cc2ccc(NC(=O)Nc3ccccc3)cc2)C(C)(C)C1=O (some centres unmarked) [Example 25] | 8.22 |
| Cc1ccccc1NC(=O)Nc1ccc(CN2C(=O)N([C@@H](CC(C)C)C(=O)N[C@@H](CC(=O)O)C(=O)O)C(=O)C2(C)C)cc1 [Example 27, ((S)-2-(4,4Dimethyl-3-(4-(3-(2-methylphenyl)ureido)benzyl)-2,5-dioxoimidazolidin-1-yl)-2-(2-methylpropyl)acetyl)-L-aspartic Acid] | 7.57 |
| Cc1ccccc1NC(=O)Nc1ccc(CN2C(=O)N(CC(=O)N(C)[C@@H](CC(=O)O)C(=O)O)C(=O)C2(C)C)cc1 [Example 28, (2-(4,4-Dimethyl-3-(4-(3-(2-methylphenyl)ureido)benzyl)-2,5-dioxoimidazolidin-1-yl)-acetyl)-N-methyl-L-aspartic Acid] | 6.96 |
| Cc1cccc(NC(=O)Nc2ccc(CN3C(=O)N(CC(=O)NC(C)CC(=O)O)C(=O)C3(C)C)cc2)c1C (centres unmarked) [Example 34] | 6.31 |
| COC(=O)c1ccccc1NC(=O)Nc1ccc(CN2C(=O)N(CC(=O)N[C@H](C)CC(=O)O)C(=O)C2(C)C)cc1 [Example 38] | 6.40 |
| CC(C)C[C@@H](C(=O)N[C@@H](CC(=O)O)C(=O)N[C@H](C(=O)O)c1ccccc1)N1C(=O)N(Cc2ccc(NC(=O)Nc3ccc(F)cc3)cc2)C(C)(C)C1=O [Example 49] | 7.89 |
| CC(C)C[C@@H](C(=O)N[C@@H](CC(=O)O)C(=O)N[C@H](C(=O)O)c1ccccc1)N1C(=O)N(Cc2ccc(NC(=O)NCc3ccccc3)cc2)C(C)(C)C1=O [Example 58] | 6.35 |
| COc1ccccc1NC(=O)Nc1ccc(CN2C(=O)N([C@@H](CC(C)C)C(=O)N[C@@H](CC(=O)O)C(=O)N[C@H](C(=O)O)c3ccccc3)C(=O)C2(C)C)cc1 [Example 61] | 7.61 |
| CC(C)C[C@@H](C(=O)N[C@@H](CC(=O)O)C(=O)N[C@H](C(=O)O)c1ccccc1)N1C(=O)N(Cc2ccc(NC(=O)Nc3ccccc3Cl)cc2)C(C)(C)C1=O [Example 62] | 8.30 |
| CC(C)C[C@@H](C(=O)N[C@@H](CC(=O)O)C(=O)N[C@H](C(=O)O)c1ccccc1)N1C(=O)N(Cc2ccc(NC(=O)Nc3ccccc3F)cc2)C(C)(C)C1=O [Example 67] | 8.64 |
| CC(C)C[C@@H](C(=O)N[C@@H](CC(=O)O)C(=O)N[C@H](C(=O)O)c1ccccc1)N1C(=O)N(Cc2ccc(NC(=O)Nc3ccccc3C(F)(F)F)cc2)C(C)(C)C1=O [Example 68] | 6.52 |
| Cc1ccccc1NC(=O)Nc1ccc(CN2C(=O)N([C@@H](C)C(=O)N[C@H](C)CC(=O)O)C(=O)C2(C)C)cc1 [Example 90, (R)-3-((S)-2-(4,4-Dimethyl-3-(4-(3-(2-methylphenyl)ureido)benzyl)-2,5-dioxoimidazolidin-1-yl)-2-methyl-acetylamino)-3-methylpropionic Acid] | 7.09 |
| Cc1ccccc1NC(=O)Nc1ccc(CN2C(=O)N(CC(=O)NC(C)(C)CC(=O)O)C(=O)C2(C)C)cc1 [Example 91, 3-(2-(4,4-Dimethyl-3-(4-(3-(2-methylphenyl)ureido)benzyl)-2,5-dioxoimidazolidin-1-yl)acetylamino)-3,3-dimethylpropionic Acid] | 6.68 |
| C[C@H](CC(=O)O)NC(=O)[C@H](CC1CC1)N1C(=O)N(Cc2ccc(NC(=O)Nc3ccccc3)cc2)C(C)(C)C1=O [Example 92, (R)-3-((S)-2-(4,4-Dimethyl-3-(4-(3-phenylureido)benzyl)-2,5-dioxoimidazolidin-1-yl)-2-cyclopropylmethylacetylamino)-3-methylpropionic Acid] | 7.40 |
| Cc1ccccc1NC(=O)Nc1ccc(CN2C(=O)N([C@@H](CC(C)C)C(=O)N[C@@H](CC(=O)O)C(=O)N[C@H](C(=O)N3CCC[C@H]3C(=O)O)C(C)C)C(=O)C2(C)C)cc1 [Example 133, ((S)-2-(4,4-Dimethyl-3-(4-(3-(2-methylphenyl)ureido)benzyl)-2,5-dioxoimidazolidin-1-yl)-2-(2-methylpropyl)acetyl)-L-aspartyl-L-valyl-L-proline] | 8.82 |
